Test results published in US12545681B2, “Compound used as RET kinase inhibitor and application thereof” (TYK Medicines, Inc., priority 2020, dated 2026).
Residue numbers refer to the chain shown, from its start. Read-outs that look alike come from different tables or passages of the source.

How the values were obtained:
RET = conditions: cited from earlier work
Ba/F3-KIF5B-RET cells = experiment: In vivo efficacy study, subcutaneous Ba/F3-KIF5B-RET tumor in nude mice; design: species or system BALB/c nude mice; conditions: 10 mg/kg P.O. BID x 3 weeks
Procedure: Cell culture: Ba/F3-KIF5B-RET cell line was cultured with 1640 medium (Biological Industries)+10%/f fetal bovine serum (BI)+1% double antibody (Penicillin Streptomycin solution, Corning, USA) at 37° C. with 5% CO2. Two passages were performed for one week. When the cell saturation was 80%-90% and the number reached the required level, the cells were collected, counted and inoculated.
Animals: BALB/c nude mice, female, 6-8 weeks of age, weighing 18-22 g. A total of 18 mice were required, provided by Beijing Vital River Laboratory Animal Technology Co., Ltd.
Tumor inoculation: 0.2 ml (2×106) Ba/F3-KIF5B-RET cells (plus stromal gel, volume ratio 1:1) were inoculated subcutaneously on the right posterior dorsum of each mouse, and group dosing was started when the average tumor volume reached about 150-200 mm^3.
Experimental index: Tumor volume and body weight were measured twice a week. Tumor volume was measured by vernier calipers with the formula TV=0.5 a×b2, where a is the long diameter of the tumor and b is the short diameter of the tumor.

Ba/F3-KIF5B-RET-V804L = target: T1, Ba/F3-KIF5B-RET-V804L (Homo sapiens, UniProt P07949, V804L); experiment: Cell anti-proliferation (CellTiter-Glo), Ba/F3-KIF5B-RET-V804L cells; format: cell-based; conditions: cell viability, 72 h incubation
T1 construct: KIF5B (fusion partner, N-terminal part of kinesin-1 heavy chain, P33176); host or cells: Ba/F3 (murine pro-B cells); the other entry of the earlier key: KIF5B (P33176, Kinesin-1 heavy chain)
T1 sequence (P07949 713-1063 V804L limits assumed): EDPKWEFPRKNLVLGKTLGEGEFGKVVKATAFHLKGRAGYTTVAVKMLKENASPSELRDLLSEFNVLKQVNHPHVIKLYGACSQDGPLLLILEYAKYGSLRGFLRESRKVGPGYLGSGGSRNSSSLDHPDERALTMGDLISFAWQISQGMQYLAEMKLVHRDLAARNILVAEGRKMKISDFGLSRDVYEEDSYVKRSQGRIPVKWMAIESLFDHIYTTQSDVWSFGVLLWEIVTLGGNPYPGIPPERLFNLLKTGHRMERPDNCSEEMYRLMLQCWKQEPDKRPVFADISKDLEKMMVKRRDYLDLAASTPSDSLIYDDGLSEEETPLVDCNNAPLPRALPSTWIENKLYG
Procedure: (§1) Ba/F3-KIF5B-RET, Ba/F3-KIF5B-RET-V804L and Ba/F3-KIF5B-RET-V804M cells were constructed by PreceDo Pharmaceuticals Co., Ltd.
(§2) Ba/F3-KIF5B-RET, Ba/F3-KIF5B-RET-V804L and Ba/F3-KIF5B-RET-V804M medium: RPMI-1640+10% FBS+1% P/S.
(§3) A 1000×solution of the compound was prepared with DMSO, the compound was diluted to 20 times to obtain the final concentration with a growth medium, and 2 μl 1000×cpd was added to 98 μl growth medium.
(§4) Cells were centrifuged and resuspended with growth medium and cell counting was performed using a cell counter. The cell suspension was diluted with growth medium to the desired concentration. 95 uL of the diluted cell suspension was taken out to a 96-well plate. 5 μL of 20×compound solution was added to the 96-well plate to a final DMSO concentration of 0.1% per well. The 96-well plate was incubated for 72 h at 37° C. with 5% CO2.
(§5) The 96-well plate was equilibrated to room temperature before the assay, 50 μl of CellTiter-Glo® Reagent was added to each well, the cells were fully lysed by shaking for 2 minutes on a shaker, incubated for 10 minutes at room temperature, and Paradigm was used to detect and record the […] readings.
(§6) Cell viability was analyzed using Graphpad 7.0 software according to the formula Cell viability (CV %)=(RLU compound−RLU blank)/(RLU control−RLU blank)*100%, and the corresponding IC50 data were calculated, in Table 1, the following names are used: <10.00 nM=A; 10.01-50.0 nM=B; >50 nM=C.

Ba/F3-KIF5B-RET = target: T2, Ba/F3-KIF5B-RET (Homo sapiens, UniProt P07949); experiment: Cell anti-proliferation (CellTiter-Glo), Ba/F3-KIF5B-RET cells; format: cell-based; conditions: cell viability, 72 h incubation, CellTiter-Glo
T2 construct: KIF5B (fusion partner, N-terminal part of kinesin-1 heavy chain, P33176); host or cells: Ba/F3 (murine pro-B cells); the other entry of the earlier key: KIF5B (P33176, Kinesin-1 heavy chain)
T2 sequence (P07949 713-1063 limits assumed): T1 sequence (P07949 713-1063 V804L limits assumed) with L92V
Procedure: as §1, §2, §3, §4, §5, §6

Ba/F3-KIF5B-RET-V804M = target: T3, Ba/F3-KIF5B-RET-V804M (Homo sapiens, UniProt P07949, V804M); experiment: Cell anti-proliferation (CellTiter-Glo), Ba/F3-KIF5B-RET-V804M cells; format: cell-based; conditions: cell viability, 72 h incubation
T3 construct: KIF5B (fusion partner, N-terminal part of kinesin-1 heavy chain, P33176); host or cells: Ba/F3 (murine pro-B cells); the other entry of the earlier key: KIF5B (P33176, Kinesin-1 heavy chain)
T3 sequence (P07949 713-1063 V804M limits assumed): T1 sequence (P07949 713-1063 V804L limits assumed) with L92M
Procedure: as §1, §2, §3, §4, §5, §6

Compound | overall remission rate (ORR) (RET; patients with medullary thyroid carcinoma) [%] | overall remission rate (ORR) (RET; patients with non-small cell lung cancer) [%] | overall remission rate (ORR) (RET; tumor patients with RET fusion and mutation) [%] | Tumor Volume(mm^3) 0 day (Ba/F3-KIF5B-RET cells; 0 day) [mm^3] | Tumor Volume(mm^3) 2 days (Ba/F3-KIF5B-RET cells; 2 days) [mm^3] | Tumor Volume(mm^3) 5 days (Ba/F3-KIF5B-RET cells; 5 days) [mm^3] | Tumor Volume(mm^3) 9 days (Ba/F3-KIF5B-RET cells; 9 days) [mm^3] | Tumor Volume(mm^3) 12 days (Ba/F3-KIF5B-RET cells; 12 days) [mm^3] | Tumor Volume(mm^3) 16 days (Ba/F3-KIF5B-RET cells; 16 days) [mm^3] | Tumor Volume(mm^3) 19 days (Ba/F3-KIF5B-RET cells; 19 days) [mm^3] | Tumor Volume(mm^3) 22 days (Ba/F3-KIF5B-RET cells; 22 days) [mm^3] | IC50 (Ba/F3-KIF5B-RET-V804L) [nM] | IC50 (Ba/F3-KIF5B-RET) [nM] | IC50 (Ba/F3-KIF5B-RET-V804M) [nM]
CO[C@]1(C(=O)N[C@@H](C)c2ccc(-n3cc(F)cn3)nc2)CC[C@H](c2nc(C)cc(Nc3cc(C)[nH]n3)n2)CC1 [BLU-667] | 40 | 50 | 45 | – | – | – | – | – | – | – | – | – | – | –
CO[C@]1(C(=O)N[C@@H](C)c2ccc(-n3cc(F)cn3)nc2)CC[C@H](c2nc(Nc3cc(C)[nH]n3)c3cnn(C)c3n2)CC1 [Compound C1] | – | – | – | 168.34 | 162.57 | 139.55 | 189.12 | 222.35 | 203.41 | 199.75 | 199.64 | < 10 | < 10 | < 10
